Measured values published in US7915402B2, “Antioxidant inflammation modulators: oleanolic acid derivatives with saturation in the C-ring” (Reata Pharmaceuticals, Inc., priority 2008, dated 2011).
Converted amounts (≈) assume the structure as drawn. Like-named read-outs stand apart in the source and are kept apart here. Marks after values point to notes of the source that are not given here.

Columns and labels:
[1] = Aqueous solubility determination (Multiscreen solubility filter plate, UV/vis); format: physicochemical; details: universal aqueous buffer, pH 7.4, aqueous buffer, kinetic from dmso stock, universal aqueous buffer pH 7.4, 90 min, room temperature
Experimental: Aqueous Solubility Determination. The following procedure was used to obtain the aqueous solubility results summarized in Example 8. Step 1. Determination of optimal UV/vis wavelengths and generation of standard curves for a compound of interest: • (1) For eight standard calibration curves (one plate), prepare 34 mL of 50:50 (v:v) universal buffer:acetonitrile in a 50 mL tube. • (2) Using a multichannel pipet, dispense (in μL) the buffer:acetonitrile in a deep well plate as follows:
• (6) Cover plate with lid and shake (200-300 rpm) at room temperature for 20 minutes. • (7) Mix all wells by pipetting up and down 10 times. • (8) Transfer 120 μL from each well to a UV transparent plate. Cover and shake for 3-5 minutes. Remove any bubbles in the wells using a pipet. • (9) Read from 220 nm to 500 nm at 10 nm increments on a spectrophotometer (e.g., SpectraMax®).
Step 2. Compound Solubility Testing Procedures Using the Millipore™ Multiscreen® Solubility Filter Plate.
Universal Aqueous Buffer: • (a) To prepare 500 mL of universal buffer, add the following: 250 mL Nanopure water; 1.36 mL (45 mM) ethanolamine; 3.08 g (45 mM) potassium dihydrogen phosphate; 2.21 g (45 mM) potassium acetate; thoroughly mix. • (b) Adjust pH to 7.4 with HCl and q.s. to 500 mL with 0.15 M KCl. • (c) Filter to remove particulates and reduce bacterial growth. • (d) Store at 4° C. in the dark.
Solubility Protocol: • (a) Add 285 μL of Universal Aqueous Buffer to desired wells of the Millipore™ Multiscreen® Solubility filter plate. • (b) Add 15 μL of 10 mM compound in DMSO to the appropriate wells. Add 15 μL of 100% DMSO only to 6 wells of the filter plate for blanks. • (c) Using a multichannel pipet, mix wells by pipetting up and down 10 times. Be careful not to touch the filters in the plate with the tips. • (d) Cover and gently shake (200-300 rpm) filter plate for 90 minutes at room temperature. • (e) Vacuum filter the aqueous solution from the Multiscreen® solubility filter plate into a polypropylene V-bottom plate. • (f) Transfer 60 μL of filtrate to a UV transparent plate (Greiner® UV-Star Analysis Plate). • (g) Add 60 μL of acetonitrile to each well and mix by pipetting up and down 10 times. • (h) Cover and gently shake for 3-5 minutes. Remove any bubbles with a pipet. • (i) Measure the absorbance of each well in the plate on the spectrophotometer (UV/vis) at the desired wavelength. For compounds in a plate with different absorbance peaks, set the spectrophotometer to read a spectrum (e.g., from 220 nm to 460 nm). • (j) Identify concentration using measured absorbance for each compound and the predetermined standard curve (see Step 1).

[2] = tested on: IFNγ-induced NO production in RAW264.7 macrophages; experiment: Suppression of IFNγ-induced NO production (Griess reagent); format: cell-based, mouse; details: RAW264.7, 20 ng/ml IFNγ 24 h, 2 h pre-treatment
Experimental: (§1) FIGS. 1-8 and 32-34. Inhibition of NO Production. RAW264.7 macrophages were pre-treated with DMSO or drugs at various concentrations (nM) for 2 hours, then treated with 20 ng/ml IFNγ for 24 hours. NO concentration in media was determined using a Griess reagent system; cell viability was determined using WST-1 reagent.
(§2) Nitric Oxide production and cell viability. RAW264.7 macrophages were pre-treated with DMSO or drugs for 2 hours, then treated with recombinant mouse IFNγ (Sigma) for 24 hours. NO concentration in media was determined using the Griess reagent system (Promega). Cell viability was determined using WST-1 reagent (Roche).

[3] = tested on: RAW264.7 macrophages; experiment: Cell viability, WST-1 reagent; format: cell-based, mouse; details: RAW264.7 (20 ng/ml IFNγ)
Experimental: as §1, §2

[4] = tested on: HO-1; experiment: Nrf2 target gene induction, HO-1 mRNA (qPCR); format: cell-based, human; details: MDA-MB-435 cells
Experimental: FIGS. 17-20. Induction of HO-1. MDA-MB-435 human melanoma cells were treated with vehicle (DMSO) or the indicated compounds and concentrations for 16 hours. HO-1 mRNA levels were quantified using qPCR and were normalized relative to a DMSO-treated sample run in parallel. Values are averages of duplicate wells.
(§3) FIG. 21. Induction of HO-1, TrxR1 and γ-GCS. MDA-MB-435 human melanoma cells were treated with vehicle (DMSO) or the indicated compounds and concentrations for 16 hours. HO-1, thioredoxin reductase-1 (TrxR1), and γ-glutamylcysteine synthetase (γ-GCS) mRNA levels were quantified using qPCR and were normalized relative to a DMSO-treated sample run in parallel. Values are averages of duplicate wells.
(§4) Nrf2 target gene induction. MDA-MB-435 human melanoma cells were treated with vehicle (DMSO) or the indicated compounds and concentrations for 16 hours. HO-1, thioredoxin reductase-1 (TrxR1), γ-glutamylcysteine synthetase (γ-GCS), and ferritin heavy chain mRNA levels were quantified using qPCR and were normalized relative to a DMSO-treated sample run in parallel. Values are averages of duplicate wells. Primer sequences are as follows.

[5] = tested on: thioredoxin reductase-1 (TrxR1); experiment: Nrf2 target gene induction, TrxR1 mRNA (qPCR); format: cell-based, human; details: MDA-MB-435 cells, 400 nM; percent of induction observed for 402
Experimental: as §3
FIG. 22. Induction of TrxR1. MDA-MB-435 human melanoma cells were treated with vehicle (DMSO) or the indicated compounds and concentrations for 16 hours. Thioredoxin reductase-1 (TrxR1) mRNA levels were quantified using qPCR and were normalized relative to a DMSO-treated sample run in parallel. Values are averages of duplicate wells. Compounds 401, 402-19 and 402-53 are comparison compounds (see Example 1).
as §4

[6] = tested on: γ-glutamylcysteine synthetase (γ-GCS); experiment: Nrf2 target gene induction, γ-GCS mRNA (qPCR); format: cell-based, human; details: MDA-MB-435 cells
Experimental: as §3
FIG. 23. Induction of γ-GCS. MDA-MB-435 human melanoma cells were treated with vehicle (DMSO) or the indicated compounds and concentrations for 16 hours. γ-glutamylcysteine synthetase (γ-GCS) mRNA levels were quantified using qPCR and were normalized relative to a DMSO-treated sample run in parallel. Values are averages of duplicate wells.
as §4

[7] = tested on: mice; details: sesame oil, N=4
[8] = tested on: NQO1; experiment: Nrf2 target gene induction, NQO1; format: cell-based, human; details: MDA-MB-435 cells, 250 nM; fold induction above DMSO control
[9] = 400 nM, percent of induction observed for 402
[10] = 250 nM, fold induction above DMSO control

Row | Structure (SMILES) | solubility at 90 min [1] [µM] | IC50 ([2]; Mus musculus) [nM] | IC50 ([3]; Mus musculus) [nM] | HO-1 induction [4, 10] [fold] | NQO1 induction [8] [fold] | further results
1 | COC(=O)[C@]12CCC(C)(C)C[C@H]1[C@H]1C(=O)C=C3[C@@]4(C)C=C(C#N)C(=O)C(C)(C)[C@@H]4CC[C@@]3(C)[C@]1(C)CC2 [Compound 402, reference compound] | 1.46 (≈ 0.738 µg/mL) | – | – | – | – | –
2 | CC1(C)CC[C@]2(C(=O)O)CC[C@]3(C)[C@H](C(=O)CC4[C@@]5(C)C=C(C#N)C(=O)C(C)(C)[C@@H]5CC[C@]43C)[C@@H]2C1 (stereo partly drawn) [Compound 63196, (4aS,6aR,6bR,8aR,12aR,14aR,14bS)-11-cyano-2,2,6a,6b,9,9,12a-heptamethyl-10,14-dioxo-1,2,3,4,4a,5,6,6a,6b,7,8,8a,9,10,12a,12b,13,14,14a,14b-icosahydropicene-4a-carboxylic acid] | – | ~75 | > 200 | – | – | HO-1 induction [4, 9]: 1%; TrxR1 induction [5]: 48%; γ-GCS induction [6, 9]: 26%; Number of Deaths ([7]; oral gavage QDx14, 10 mg/kg): 0; Number of Deaths ([7]; oral gavage QDx14, 50 mg/kg): 1*; Number of Deaths ([7]; oral gavage QDx14, 100 mg/kg): 0; Number of Deaths ([7]; oral gavage QDx14, 250 mg/kg): 1
3 | CC1(C)CC[C@]2(CO)CC[C@]3(C)[C@H](C(=O)C[C@@H]4[C@@]5(C)C=C(C#N)C(=O)C(C)(C)[C@@H]5CC[C@]43C)[C@@H]2C1 [Compound 63202] | 1.89 (≈ 0.907 µg/mL) | – | – | – | – | –
4 | CC1(C)CC[C@]2(C(N)=O)CC[C@]3(C)[C@H](C(=O)CC4[C@@]5(C)C=C(C#N)C(=O)C(C)(C)[C@@H]5CC[C@]43C)[C@@H]2C1 (stereo partly drawn) [Compound 63205, (4aS,6aR,6bR,8aR,12aR,14aR,14bS)-11-cyano-2,2,6a,6b,9,9,12a-heptamethyl-10,14-dioxo-1,2,3,4,4a,5,6,6a,6b,7,8,8a,9,10,12a,12b,13,14,14a,14b-icosahydropicene-4a-carboxamide] | – | ~25 | > 200 | 1.7 | 1.7 | γ-GCS induction [6, 10]: 3.5 fold
5 | CC1(C)CC[C@]2(C=O)CC[C@]3(C)[C@H](C(=O)CC4[C@@]5(C)C=C(C#N)C(=O)C(C)(C)[C@@H]5CC[C@]43C)[C@@H]2C1 (stereo partly drawn) [Compound 63206, (4aR,6aR,6bR,8aS,12aS,12bR,14bR)-8a-formyl-4,4,6a,6b,11,11,14b-heptamethyl-3,13-dioxo-3,4,4a,5,6,6a,6b,7,8,8a,9,10,11,12,12a,12b,13,14,14a,14b-icosahydropicene-2-carbonitrile] | – | ~10 | > 200 | 2.5 | 1.8 | γ-GCS induction [6, 10]: 4.5 fold
6 | COC(=O)[C@]12CCC(C)(C)C[C@H]1[C@H]1[C@H](O)C[C@@H]3[C@@]4(C)C=C(C#N)C(=O)C(C)(C)[C@@H]4CC[C@@]3(C)[C@]1(C)CC2 [Compound 63207] | – | – | – | 1.2 | 1.6 | IC50 [2]: ~50 nM; IC50 [3]: > 200 nM; γ-GCS induction [6, 10]: 3.1 fold
7 | CC1(C)CC[C@]2(CN)CC[C@]3(C)[C@H](C(=O)C[C@@H]4[C@@]5(C)C=C(C#N)C(=O)C(C)(C)[C@@H]5CC[C@]43C)[C@@H]2C1 [Compound 63214] | 112 (≈ 53.7 µg/mL) | – | – | – | – | –
8 | COC(=O)[C@]12CCC(C)(C)C[C@H]1[C@H]1[C@@H](O)C[C@@H]3[C@@]4(C)C=C(C#N)C(=O)C(C)(C)[C@@H]4CC[C@@]3(C)[C@]1(C)CC2 [Compound 63219] | 13.6 (≈ 6.92 µg/mL) | ~150 | > 200 | – | – | –
9 | CC1(C)CC[C@]2([C@@H](O)CO)CC[C@]3(C)[C@H](C(=O)C[C@@H]4[C@@]5(C)C=C(C#N)C(=O)C(C)(C)[C@@H]5CC[C@]43C)[C@@H]2C1 [Compound 63221] | 8.78 (≈ 4.48 µg/mL) | – | – | – | – | –
10 | CC1(C)CC[C@]2(CNC(=O)C(F)(F)F)CC[C@]3(C)[C@H](C(=O)C[C@@H]4[C@@]5(C)C=C(C#N)C(=O)C(C)(C)[C@@H]5CC[C@]43C)[C@@H]2C1 [Compound 63226] | 0.71 (≈ 0.408 µg/mL) | – | – | – | – | –
11 | CC1(C)CC[C@]2(CCO)CC[C@]3(C)[C@H](C(=O)C[C@@H]4[C@@]5(C)C=C(C#N)C(=O)C(C)(C)[C@@H]5CC[C@]43C)[C@@H]2C1 [Compound 63231] | 1.23 (≈ 0.607 µg/mL) | – | – | – | – | –
12 | Cc1cc(CNC[C@]23CCC(C)(C)C[C@H]2[C@H]2C(=O)C[C@@H]4[C@@]5(C)C=C(C#N)C(=O)C(C)(C)[C@@H]5CC[C@@]4(C)[C@]2(C)CC3)no1 [Compound 63232] | 0.75 (≈ 0.43 µg/mL) | – | – | – | – | –
13 | CC1(C)CC[C@]23CC[C@@]4(C)[C@]5(C)CC[C@H]6C(C)(C)C(=O)C(C#N)=C[C@]6(C)[C@H]5CC(=O)[C@@]4([C@@H]2C1)N(CC(F)(F)F)C3=O [Compound 63237] | 5.16 (≈ 2.96 µg/mL) | ~80 | > 200 | 3 | 2.3 | γ-GCS induction [6, 10]: 6.4 fold
14 | CC1(C)CC[C@]2(C#N)CC[C@]3(C)[C@H](C(=O)CC4[C@@]5(C)C=C(C#N)C(=O)C(C)(C)[C@@H]5CC[C@]43C)[C@@H]2C1 (stereo partly drawn) [Compound 63252, (4aR,6aR,6bR,8aS,12aS,12bR,14bR)-4,4,6a,6b,11,11,14b-heptamethyl-3,13-dioxo-3,4,4a,5,6,6a,6b,7,8,8a,9,10,11,12,12a,12b,13,14,14a,14b-icosahydropicene-2,8a-dicarbonitrile] | – | ~5 | > 200 | 5 | 3 | –
